Reference: US20260365692A1, “COMPOSITIONS COMPRISING PROTEINS DISSOLVED IN FLUORINATED SOLVENTS, AND METHODS OF MAKING AND USING THE SAME” (priority 2022, published 2026)

How the values were obtained:
[1] = Pharmacokinetics of β-Gal in C57BL/6J mice (Example 3); type: in vivo; conditions: i.v. tail vein
Procedure: (§1) Two groups (n=5) of C57BL/6J mice received […] of 10 μM solutions of β-Gal that was either 1) prepared in sterile PBS or 2) dissolved in PFOc (1 mM PFNA) and extracted into sterile PBS. Due to the large solution volumes given (150 μL, ~15% of mouse blood volume), PFOc dispersed proteins were extracted into sterile saline before injection to avoid hyponatremia. Samples were administered by tail vein injection.
At a series of time points, mice were sacrificed, and blood samples collected via cardiac puncture. Bioactivity and bioavailability of β-Gal was determined by conversion of the fluorescent substrate, 4-Methylumbelliferyl-[…] (β-GAL). Whole blood collected in a serum tube was centrifuged at 2000 rcf for 4 minutes to extract serum containing β-Gal protein. 20 μL of the serum was then mixed with 180 μL μ-GAL (for a final substrate concentration of 1 μM). Samples were quickly pipette mixed and incubated in the dark at room temperature for 5 minutes. Fluorescent intensity was measured with λex=360 nm and λem=440 nm. The background fluorescent intensity from serum was determined from serum dilution in PBS without μ-GAL substrate.

[2] = Acute toxicity in C57BL/6J mice (Example 3); type: in vivo; conditions: 24 h
Procedure: as §1
To assess acute toxicity, animals were intravenously administered solutions of β-Gal either prepared in sterile PBS or dissolved in PFOc (1 mM PFNA) and extracted into sterile PBS, as described above. After 24 hours, mice were sacrificed, and blood was collected via cardiac puncture. A minimum of 100 μL of whole blood was added to EDTA for complete blood count. The remainder was centrifuged (1000 rcf, 10 minutes) to isolate serum for chemistry analysis. Tissues (lungs, livers, kidneys, and spleens) from euthanized animals were collected and stored in 10% buffered-formalin immediately after euthanasia. […] from each organ were mounted onto glass slides and stained with Hematoxylin and Eosin (H&E). Four random fields in each section were examined under a microscope at 5× and 40× magnification. Tissue relevant clinical features were compared across samples. […]

[3] = biological target: T1, BSA (Bos taurus, UniProt P02769); assay: Isothermal titration calorimetry, BSA; type: binding, bovine
From the text: To test this assertion, PFNA binding to three exemplary proteins, BSA, β-Gal and IgG, was studied via isothermal titration calorimetry (ITC) and surface plasmon resonance (SPR) techniques. […] SPR analysis yielded similar results, with sensorgrams (FIGS. 14J-14L) that diverged from a simple 1:1 ligand-protein model. […] Similar phenomenon may explain the negative signals of the SPR data and further support the ability of PFNA to modulate the conformational plasticity of adsorbed proteins.

[4] = test system: β-gal; assay: Surface plasmon resonance, β-Gal; type: binding; conditions: after reference correction
From the text: FIGS. 14A-14L depict circular dichroism spectra of Hb (FIG. 14A), GFP (FIG. 14B), BSA (FIG. 14C), β-Gal (FIG. 14D), rabbit serum IgG (FIG. 14E), transferrin (FIG. 14F), and urease (FIG. 14G) in the absence (black line) or presence (dashed lines) of PFNA. Increasing dash sequence indicated higher concentration of PFNA. FIG. 14H: Change in molar ellipticity at 216 nm (Δθ216) of PFNA-treated proteins, relative to native controls, as a function of increasing ligand concentration. FIG. 14I: Percentage change in secondary structural motifs of Hb, β-Gal and IgG between the native protein and 1 mM PFNA treated samples. β-sheet structures were further differentiated into parallel and antiparallel conformations. Hb, β-Gal and IgG were prioritized for analysis based on their significant spectral shift in the presence of 1 mM PFNA. FIGS. 14J-14L: Sensograms for BSA (FIG. 14J), β-gal (FIG. 14K), and IgG (FIG. 14L) showing relative response (R.U.) at 10, 25, 50, 75, and 100 μM.
To test this assertion, PFNA binding to three exemplary proteins, BSA, β-Gal and IgG, was studied via isothermal titration calorimetry (ITC) and surface plasmon resonance (SPR) techniques. […] SPR analysis yielded similar results, with sensorgrams (FIGS. 14J-14L) that diverged from a simple 1:1 ligand-protein model. […]

[5] = test system: A549 cells; assay: Protein uptake in A549 cells, Texas Red-labeled Transferrin; type: cell-based, human; conditions: PFNA, 24 hours of incubation
Procedure: FIGS. 19A-19B depicts the uptake of Texas Red-labeled Transferrin in human lung A549 cells after 2 and 24 hours of incubation in the absence/presence of PFNA. Results are shown in relative fluorescence units (RFU).
Multiplexed in vitro assays were employed to probe the influence of PFNA interactions on protein uptake and transport in cells. A549 and PC9 human lung cells were prioritized for these assays given that pulmonary tissue is a primary site of perfluoroalkyl bioaccumulation in humans (Reference: 63). Before initiating experiments, cellular toxicity assays established a maximum tolerated dose of PFNA to avoid confounding protein transport experiments with substantive cell death. Protein uptake was then studied using green fluorescent protein (GFP) and bovine serum albumin (BSACy5) as model biologics that employ non-specific pinocytic mechanisms for cellular entry.

[6] = biological target: T1, BSA; assay: 1H and 19F NMR of dispersant:BSA complex; type: binding, bovine
Procedure: FIG. 43 depicts a superimposed ^1H NMR spectra of PD-7 (60 mM) and PD-7:BSA (1000:1 molar ratio) complex.
FIG. 44 depicts a superimposed ^1H NMR spectra of PD-2 (60 mM) and PD-2:BSA (1000:1 molar ratio) complex.
FIG. 45 depicts the change in ^1H (—COOH) and ^19F (—CF3) NMR chemical shift (Δδ) for PD-2 (grey) and PD-7 (black) following coordination with the BSA protein.
1H NMR and 19F NMR spectroscopy were employed to examine the biophysical interactions between BSA and PD-7 in the fluorous solvent. 60 mM PFNA solution in PFOc was aliquoted into lyophilized BSA stocks to achieve 1000:1 PFNA/BSA molar ratio then transferred to thin wall precision tube with Norell Coaxial inserts containing D2O as locking solvent. NMR spectra were collected on a Bruker NEO-400, equipped with a double resonance broadband observe iProbe (capable of automatic tuning and matching) for 1H and 19F nuclei observation. […] This is a 7-fold change in chemical shift relative to PD-7:BSA (FIG. 45).

[7] = presence of BSA, 1000:1 molar ratio, in PFOc

T1 sequence (P02769 25-607): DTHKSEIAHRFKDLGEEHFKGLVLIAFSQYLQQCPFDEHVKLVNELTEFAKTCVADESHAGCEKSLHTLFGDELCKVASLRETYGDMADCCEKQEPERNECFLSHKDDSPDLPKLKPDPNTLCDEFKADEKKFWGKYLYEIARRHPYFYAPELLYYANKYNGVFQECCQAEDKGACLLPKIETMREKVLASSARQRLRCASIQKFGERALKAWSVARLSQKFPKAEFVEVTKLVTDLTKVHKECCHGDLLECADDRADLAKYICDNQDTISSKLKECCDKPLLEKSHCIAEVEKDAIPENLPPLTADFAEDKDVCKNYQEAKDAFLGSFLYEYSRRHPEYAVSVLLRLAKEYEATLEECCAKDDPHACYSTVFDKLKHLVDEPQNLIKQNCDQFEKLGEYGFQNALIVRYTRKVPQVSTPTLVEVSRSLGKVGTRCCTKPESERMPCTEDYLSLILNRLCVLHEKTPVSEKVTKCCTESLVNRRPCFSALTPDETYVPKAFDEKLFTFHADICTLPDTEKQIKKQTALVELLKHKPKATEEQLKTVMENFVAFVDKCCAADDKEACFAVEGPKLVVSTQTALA

Question: With “β-Gal: β-Galactosidase (β-Gal), dissolved in PBS/saline or dispersed in PFOc” as the compound, how does the “serum half-life t1/2” value ([1]; native β-Gal administered in saline) read?
Answer: The value was 6.6 min.

Question: What about the “serum half-life t1/2” value ([1]; β-Gal delivered from PFOc dispersion (1 mM PFNA), extracted into saline) of the same compound?
Answer: The value was 7.9 min.

Question: What about the “BUN, RBC, HGB, HCT versus sham saline injection control” value ([2]; PFOc β-Gal, i.v.) of the same compound?
Answer: Its value is “none of these markers were statistically different”.

Question: And the histologic organ analyses ([2]; lung, kidney, liver, spleen, β-Gal from PFOc)?
Answer: Its histologic organ analyses is “did not identify signs of necrosis, cellular infiltration, inflammation, or hemorrhage”.

Question: For `O=C(O)C(F)(F)C(F)(F)C(F)(F)C(F)(F)C(F)(F)C(F)(F)C(F)(F)C(F)(F)F` [Compound 7, perfluoronanonic acid], which “evolution of heat (ITC)” value [3] is on record?
Answer: The value was “no significant evolution of heat”.

Question: What about the SPR response [4] of the same compound?
Answer: The SPR response was “negative responses”.

Question: What about the “increase in cellular fluorescence (Transferrin uptake) compared to native protein” value [5] of the same compound?
Answer: Its value is 43%.

Question: What about the “change in chemical shift relative to PD-7:BSA” value ([6]; 1H —COOH, PD-2 vs PD-7) of the same compound?
Answer: The value was 7 fold.

Question: And the “change in chemical shift of CF3 (Δδ, 19F NMR)” value [6, 7]?
Answer: Its value is 0.006 ppm.

Question: And the “downfield shift of —COOH hydrogen (1H NMR)” value [6, 7]?
Answer: Its value is 0.56 ppm.
